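Following 48 hours of exposure in 96-well plates, responses at five concentrations were used to interpolate endpoints linearly. Here, GI50 denotes the concentration required for 50% inhibition of growth.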 Active and inactive are the calls of the source. Cut-off read from the data, not from the text of the source: active = GI50 up to about 1.1 µM and inactive = higher.
Experiments:
Assay in all cases: NCI tumour cell line growth inhibition, 48 h
[1] = system: 786-0
[2] = system: A498
[3] = system: A549
[4] = system: ACHN
[5] = system: BT-549
[6] = system: CAKI-1
[7] = system: CCRF-CEM
[8] = system: COLO 205
[9] = system: DLD-1
[10] = system: DMS-114
[11] = system: DMS-273
[12] = system: DU-145
[13] = system: EKVX
[14] = system: HCC 2998
[15] = system: HCT-116
[16] = system: HCT-15
[17] = system: HL-60
[18] = system: HOP-18
[19] = system: HOP-62
[20] = system: HOP-92
[21] = system: HT-29
[22] = system: Hs-578T
[23] = system: IGROV-1
[24] = system: K562
[25] = system: KM-20L2
[26] = system: KM12
[27] = system: LOX IMVI
[28] = system: LXFL 529
[29] = system: M14
[30] = system: M19-MEL
[31] = system: MCF7
[32] = system: MDA-MB-231
[33] = system: MDA-MB-435
[34] = system: MDA-N
[35] = system: MOLT-4
[36] = system: Malme-3M
[37] = system: NCI-H226
[38] = system: NCI-H23
[39] = system: NCI-H460
[40] = system: NCI-H522
[41] = system: NCI/ADR-RES
[42] = system: OVCAR-3
[43] = system: OVCAR-4
[44] = system: OVCAR-5
[45] = system: OVCAR-8
[46] = system: PC-3
[47] = system: RPMI-8226
[48] = system: RXF 393
[49] = system: RXF 631
[50] = system: SF-268
[51] = system: SF-295
[52] = system: SF-539
[53] = system: SK-MEL-28
[54] = system: SK-MEL-2
[55] = system: SK-MEL-5
[56] = system: SK-OV-3
[57] = system: SN12C
[58] = system: SNB-19
[59] = system: SNB-75
[60] = system: SNB-78
[61] = system: SR
[62] = system: SW-620
[63] = system: T47D
[64] = system: TK-10
[65] = system: U-251
[66] = system: UACC-257
[67] = system: UACC-62
[68] = system: UO-31
[69] = system: XF498

Measured: GI50

COc1ccccc1/C=C1\CCC(CN2CCOCC2)C1=O (stereo not given)
4.24 µM: [16]
inactive: [1] 3.02 µM | [2] 18.2 µM | [3] 21.9 µM | [4] 16.1 µM | [5] 12.6 µM | [6] 17.3 µM | [7] 2.56 µM | [8] 4.47 µM | [9] 3.84 µM | [10] 16 µM | [11] 13.6 µM | [12] 17.3 µM | [13] 11.2 µM | [14] 14.9 µM | [15] 6.92 µM | [17] 2.12 µM | [18] 17.9 µM | [19] 25.5 µM | [20] 18.4 µM | [21] 11 µM | [22] 10.8 µM | [23] 12.5 µM | [24] 2.81 µM | [25] 16.6 µM | [26] 3.71 µM | [27] 6.52 µM | [28] 3.28 µM | [29] 6.15 µM | [30] 6.7 µM | [31] 5.14 µM | [32] 3.68 µM | [33] 7.13 µM | [34] 13.8 µM | [35] 2.32 µM | [36] 10.2 µM | [37] 16.9 µM | [38] 20.3 µM | [39] 18.2 µM | [40] 1.77 µM | [41] 8.95 µM | [42] 5.57 µM | [43] 16.8 µM | [44] 18.4 µM | [45] 5.43 µM | [46] 15.2 µM | [47] 1.32 µM | [48] 16.8 µM | [49] 11.9 µM | [50] 16 µM | [51] 19.2 µM | [52] 15.2 µM | [53] 15.5 µM | [54] 15.7 µM | [55] 15 µM | [56] > 43.7 µM | [57] 7.5 µM | [58] 9.55 µM | [59] 20.2 µM | [60] 20 µM | [61] 1.74 µM | [62] 4.16 µM | [63] 1.84 µM | [64] 3.49 µM | [65] 18.7 µM | [66] 11.6 µM | [67] 16.4 µM | [68] 16.6 µM | [69] 16.4 µM

N#CCCN(CCC#N)c1ccc(/C=N\c2ccc(F)cc2)cc1
active: [9] 0.347 µM | [24] 0.137 µM | [25] 0.152 µM | [27] 0.236 µM | [28] 0.121 µM | [67] 0.536 µM
1.15 µM: [16]
inactive: [1] > 31.3 µM | [2] > 100 µM | [3] 43.1 µM | [4] 3.16 µM | [5] > 100 µM | [6] > 68.5 µM | [7] 20.8 µM | [8] 14 µM | [10] 13.8 µM | [11] 4.61 µM | [12] > 100 µM | [13] > 100 µM | [14] 1.33 µM | [15] 6.97 µM | [17] 6.46 µM | [18] > 100 µM | [19] 27.1 µM | [20] > 100 µM | [23] 45.6 µM | [29] 1.62 µM | [30] 1.63 µM | [31] > 100 µM | [32] > 100 µM | [33] 17.3 µM | [34] 71.3 µM | [35] > 19.8 µM | [36] > 84.3 µM | [37] > 100 µM | [38] > 100 µM | [39] 7.01 µM | [40] > 100 µM | [42] > 79.1 µM | [43] > 49.1 µM | [45] > 100 µM | [46] 75.3 µM | [47] > 39.8 µM | [48] > 57 µM | [49] > 45.8 µM | [50] 35.2 µM | [51] 12.3 µM | [52] 15.2 µM | [53] > 48.5 µM | [54] > 16.1 µM | [55] 14.5 µM | [56] > 100 µM | [57] > 75 µM | [58] > 100 µM | [59] 73.6 µM | [60] > 100 µM | [61] 58.9 µM | [62] 19.3 µM | [63] > 100 µM | [64] > 24 µM | [65] > 100 µM | [66] > 100 µM | [68] 41.8 µM | [69] > 100 µM

Cc1cc([N+](=O)[O-])ccc1Sc1c2ccccc2nc2cc(Cl)ccc12
inactive: [1] 35.2 µM | [2] > 100 µM | [3] 46.5 µM | [4] 44.9 µM | [6] 26.2 µM | [7] 28.1 µM | [8] 38.4 µM | [9] 36.3 µM | [10] 25.4 µM | [11] 26.9 µM | [13] 40.6 µM | [14] > 100 µM | [15] 28.1 µM | [17] 5.78 µM | [18] 34.8 µM | [19] 73.5 µM | [20] 23.4 µM | [23] 46.2 µM | [24] 36.1 µM | [25] 20.4 µM | [26] 18.6 µM | [27] 24.9 µM | [28] 31 µM | [29] 40.8 µM | [30] 43 µM | [35] 21.3 µM | [36] > 100 µM | [37] 61.5 µM | [38] 28.8 µM | [39] 36.6 µM | [40] 27.7 µM | [42] 28.3 µM | [43] 41.4 µM | [44] 56.2 µM | [45] 21.8 µM | [48] 84.5 µM | [49] 49.1 µM | [50] 29.6 µM | [51] 45.8 µM | [52] 25.9 µM | [53] > 100 µM | [54] 22.9 µM | [55] 39.4 µM | [56] 47.2 µM | [57] 30.8 µM | [58] 41.3 µM | [59] 30.8 µM | [60] 41.3 µM | [61] 26.9 µM | [62] 31.2 µM | [64] 55.6 µM | [65] 27.8 µM | [66] 73.6 µM | [67] 34.5 µM | [68] 45.2 µM | [69] 23 µM
51.4 µM: [16]
